Laboratory results as given in patent US10729132B2, “Xylophage control using antimethanogenic reagents” (Environmental Intellectual Property, Inc, priority 2015, dated 2020).

How the values were obtained:
[1] = tested on: F420-dependent NADP oxidoreductase enzyme from M. smithii; settings: compared to the natural ligand F420; cited from earlier work
[2] = tested on: Archaea; assay: Laboratory Study 5: methane concentration in control and test samples with AMRs
Method: Use of diallyl sulfide, which may be considered a synthetic garlic oil (GOS), was evaluated for its ability to control Archaea compared to the effects of other potential AMRs such as natural/pressed Garlic Oil (GO) and dehydrated Garlic Powder (GP). Control samples with and without contaminants were captured along with test samples that included contaminants and different concentrations (250 ppm and 500 ppm) of different AMRs (GO, GOS and GP). The concentration of methane in each of the samples was measured at 0, 9, 16 and 23 days.

Row | SMILES | affinity for the model protein [1] | length and magnitude of antimethanogenic responses ([2]; 500 ppm lasting longer than 250 ppm) | control response in terms of methane production ([2]; after 23 days incubation, 250 ppm and 500 ppm)
1 | CC[C@H](C)C(=O)O[C@H]1CCC=C2C=C[C@H](C)[C@H](CC[C@@H]3C[C@@H](O)CC(=O)O3)[C@H]21 [compactin] | more affinity | – | –
2 | CC[C@H](C)C(=O)O[C@H]1C[C@@H](C)C=C2C=C[C@H](C)[C@H](CC[C@@H]3C[C@@H](O)CC(=O)O3)[C@H]21 [lovastatin] | more affinity | – | –
3 | C=CCSCC=C [GOS, diallyl sulfide] | – | concentration dependent | best control response
